Legend:
Assay type in all cases: in vivo
[1] = tested on: redroot pigweed (Amaranthus retroflexus, AMARE); test: Pre-emerge test, greenhouse herbicide activity screening; conditions: rated 14 days after application, 0 = no damage, 100 = complete death
Method in brief: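 Sandy loam pots; pre-emerge: sown 1 d pre-spray, surface-watered after, then bottom-watered. Post-emerge: sown 8–21 d before, 2–3 leaf stage, + 0.25% v/v NIS, bottom-watered. Acetone, 187 l/ha track spray, 15–1000 g ai/ha. 0–100 injury score, day 14.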

[2] = tested on: velvetleaf (Abutilon theophrasti, ABUTH); test: as above; conditions: rated 14 days after application, 0 = no damage, 100 = complete death
Method in brief: (§1)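 Herbicidal damage is scored 0 (none) to 100 (complete plant death) two weeks after a simulated field spray. Rates span 15–1000 g ai/ha, delivered in acetone at 187 l/ha. For post-emergence treatments, plants have 2–3 leaves and the spray carries 0.25% v/v non-ionic surfactant.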

[3] = tested on: large crabgrass (Digitaria sanguinalis, DIGSA); test: as above; conditions: rated 14 days after application, 0 = no damage, 100 = complete death
Method in brief: as §1

[4] = tested on: common ragweed (Ambrosia artemisizfolia L., AMBEL); test: as above; conditions: rated 14 days after application, 0 = no damage, 100 = complete death
Method in brief: as §1

[5] = tested on: green foxtail (Setaria viridis, SETVI); test: as above; conditions: rated 14 days after application, 0 = no damage, 100 = complete death
Method in brief: as §1

[6] = tested on: ivyleaf morningglory (Ipomoea hederacea, IPOHE); test: as above; conditions: rated 14 days after application, 0 = no damage, 100 = complete death
Method in brief: as §1

[7] = tested on: johnsongrass (Sorghum halepense, SORHA); test: as above; conditions: rated 14 days after application, 0 = no damage, 100 = complete death
Method in brief: as §1

[8] = tested on: lambsquarters (Chenopodium album, CHEAL); test: as above; conditions: rated 14 days after application, 0 = no damage, 100 = complete death
Method in brief: as §1

[9] = tested on: sicklepod (Cassia obtusifolia, CASOB); test: as above; conditions: rated 14 days after application, 0 = no damage, 100 = complete death
Method in brief: as §1

[10] = tested on: barnyardgrass (Echinochloa crus-galli, ECHCG); test: as above; conditions: rated 14 days after application, 0 = no damage, 100 = complete death
Method in brief: as §1

[11] = tested on: upland rice (Oryza sp., var. Tebonnet, RICE); test: Post-emerge test, crop safety; conditions: post-emerge, 14 days after application, rating scale 0-100
Method in brief: as §1

[12] = tested on: field corn (Zea mays L., var. Dekalb 535, CORN); test: Post-emerge test, crop safety; conditions: post-emerge, 14 days after application, rating scale 0-100
Method in brief: as §1

[13] = tested on: upland rice (Oryza sp., var. Tebonnet, RICE); test: Pre-emerge test, crop safety; conditions: rated 14 days after application, 0 = no damage, 100 = complete death
Method in brief: (§2)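 Compounds in acetone were track-sprayed at 15-1000 g ai/ha (187 l/ha) on sandy loam pots: pre-emerge one day after seeding, post-emerge at 2-3 leaf stage with 0.25% v/v non-ionic surfactant. Phytotoxicity was rated 14 days later on a 0 (no damage) to 100 (complete death) scale.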

[14] = tested on: field corn (Zea mays L., var. Dekalb 535, CORN); test: Pre-emerge test, crop safety; conditions: rated 14 days after application, 0 = no damage, 100 = complete death
Method in brief: as §2

[15] = tested on: velvetleaf (Abutilon theophrasti, ABUTH); test: Post-emerge test, greenhouse herbicide activity screening; conditions: post-emerge, 14 days after application, rating scale 0-100
Method in brief: (§3)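 Visual ratings on a 0-100 scale (0 no damage, 100 all plants dead) were taken at 14 days after treatment. Rates of 15-1000 g ai/ha in acetone, 187 l/ha, were sprayed onto soil one day after planting (pre-emerge) or onto 2-3 leaf plants with 0.25% v/v surfactant (post-emerge).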

[16] = tested on: large crabgrass (Digitaria sanguinalis, DIGSA); test: as above; conditions: post-emerge, 14 days after application, rating scale 0-100
Method in brief: as §3

[17] = tested on: common ragweed (Ambrosia artemisizfolia L., AMBEL); test: as above; conditions: post-emerge, 14 days after application, rating scale 0-100
Method in brief: as §3

[18] = tested on: ivyleaf morningglory (Ipomoea hederacea, IPOHE); test: as above; conditions: post-emerge, 14 days after application, rating scale 0-100
Method in brief: as §3

[19] = tested on: johnsongrass (Sorghum halepense, SORHA); test: as above; conditions: post-emerge, 14 days after application, rating scale 0-100
Method in brief: as §3

[20] = tested on: lambsquarters (Chenopodium album, CHEAL); test: as above; conditions: post-emerge, 14 days after application, rating scale 0-100
Method in brief: as §3

[21] = tested on: sicklepod (Cassia obtusifolia, CASOB); test: as above; conditions: post-emerge, 14 days after application, rating scale 0-100
Method in brief: as §3

[22] = tested on: barnyardgrass (Echinochloa crus-galli, ECHCG); test: as above; conditions: post-emerge, 14 days after application, rating scale 0-100
Method in brief: as §3

[23] = tested on: redroot pigweed (Amaranthus retroflexus, AMARE); test: as above; conditions: post-emerge, 14 days after application, rating scale 0-100
Method in brief: as §3

COc1c(Cl)cc(F)c(-n2c(=O)cc(C(F)(F)F)n(C)c2=O)c1NC(=O)c1ccc(OC(F)(F)F)cc1 [2-72]
Pre-emerge Herbicidal Activity, phytotoxicity rating (0-100), AMARE ([1]; 63 g ai/ha): 100
Pre-emerge Herbicidal Activity, phytotoxicity rating (0-100), AMARE ([1]; 250 g ai/ha): 100
Pre-emerge Herbicidal Activity, phytotoxicity rating (0-100), ABUTH ([2]; 63 g ai/ha): 100
Pre-emerge Herbicidal Activity, phytotoxicity rating (0-100), ABUTH ([2]; 250 g ai/ha): 100
Pre-emerge Herbicidal Activity, phytotoxicity rating (0-100), DIGSA ([3]; 63 g ai/ha): 30
Pre-emerge Herbicidal Activity, phytotoxicity rating (0-100), DIGSA ([3]; 250 g ai/ha): 100
Pre-emerge Herbicidal Activity, phytotoxicity rating (0-100), AMBEL ([4]; 63 g ai/ha): 0
Pre-emerge Herbicidal Activity, phytotoxicity rating (0-100), AMBEL ([4]; 250 g ai/ha): 50
Pre-emerge Herbicidal Activity, phytotoxicity rating (0-100), SETVI ([5]; 63 g ai/ha): 60
Pre-emerge Herbicidal Activity, phytotoxicity rating (0-100), SETVI ([5]; 250 g ai/ha): 100
Pre-emerge Herbicidal Activity, phytotoxicity rating (0-100), IPOHE ([6]; 63 g ai/ha): 20
Pre-emerge Herbicidal Activity, phytotoxicity rating (0-100), IPOHE ([6]; 250 g ai/ha): 20
Pre-emerge Herbicidal Activity, phytotoxicity rating (0-100), SORHA ([7]; 63 g ai/ha): 0
Pre-emerge Herbicidal Activity, phytotoxicity rating (0-100), SORHA ([7]; 250 g ai/ha): 50
Pre-emerge Herbicidal Activity, phytotoxicity rating (0-100), CHEAL ([8]; 63 g ai/ha): 100
Pre-emerge Herbicidal Activity, phytotoxicity rating (0-100), CHEAL ([8]; 250 g ai/ha): 100
Pre-emerge Herbicidal Activity, phytotoxicity rating (0-100), CASOB ([9]; 63 g ai/ha): 30
Pre-emerge Herbicidal Activity, phytotoxicity rating (0-100), CASOB ([9]; 250 g ai/ha): 90
Pre-emerge Herbicidal Activity, phytotoxicity rating (0-100), ECHCG ([10]; 63 g ai/ha): 0
Pre-emerge Herbicidal Activity, phytotoxicity rating (0-100), ECHCG ([10]; 250 g ai/ha): 50
phytotoxicity rating RICE ([11]; 63 g ai/ha): 0
phytotoxicity rating RICE ([11]; 250 g ai/ha): 20
phytotoxicity rating CORN ([12]; 63 g ai/ha): 0
phytotoxicity rating CORN ([12]; 250 g ai/ha): 10
Pre-emerge phytotoxicity rating (0-100), crop damage, RICE ([13]; 63 g ai/ha): 10
Pre-emerge phytotoxicity rating (0-100), crop damage, RICE ([13]; 250 g ai/ha): 40
Pre-emerge phytotoxicity rating (0-100), crop damage, CORN ([14]; 63 g ai/ha): 0
Pre-emerge phytotoxicity rating (0-100), crop damage, CORN ([14]; 250 g ai/ha): 5
phytotoxicity rating ABUTH ([15]; 63 g ai/ha): 100
phytotoxicity rating ABUTH ([15]; 250 g ai/ha): 100
phytotoxicity rating DIGSA ([16]; 63 g ai/ha): 0
phytotoxicity rating DIGSA ([16]; 250 g ai/ha): 0
phytotoxicity rating AMBEL ([17]; 63 g ai/ha): 70
phytotoxicity rating AMBEL ([17]; 250 g ai/ha): 60
phytotoxicity rating IPOHE ([18]; 63 g ai/ha): 50
phytotoxicity rating IPOHE ([18]; 250 g ai/ha): 60
phytotoxicity rating SORHA ([19]; 63 g ai/ha): 0
phytotoxicity rating SORHA ([19]; 250 g ai/ha): 0
phytotoxicity rating CHEAL ([20]; 63 g ai/ha): 70
phytotoxicity rating CHEAL ([20]; 250 g ai/ha): 80
phytotoxicity rating CASOB ([21]; 63 g ai/ha): 70
phytotoxicity rating CASOB ([21]; 250 g ai/ha): 95
phytotoxicity rating ECHCG ([22]; 63 g ai/ha): 0
phytotoxicity rating ECHCG ([22]; 250 g ai/ha): 0
phytotoxicity rating AMARE ([23]; 63 g ai/ha): 70
phytotoxicity rating AMARE ([23]; 250 g ai/ha): 90

From US6355799B1, “Substituted benzene compounds, process for their preparation, and herbicidal and defoliant compositions containing them” (ISK Americas Incorporated, priority 1997, dated 2002)
